From article PMC3368874, “Characterization of 4-HNE Modified L-FABP Reveals Alterations in Structural and Functional Dynamics” (PLoS ONE, 2012)

What was measured:
4-HNE adducted rL-FABP = target: T1, 4-HNE adducted rL-FABP (Mus musculus, UniProt P12710); test: Displacement of ANS by fatty acids, 1X 4-HNE treated rL-FABP; type: binding
T1 construct: made in house; host or cells: Escherichia coli BL21 (DE3)
T1 sequence (P12710 1-127): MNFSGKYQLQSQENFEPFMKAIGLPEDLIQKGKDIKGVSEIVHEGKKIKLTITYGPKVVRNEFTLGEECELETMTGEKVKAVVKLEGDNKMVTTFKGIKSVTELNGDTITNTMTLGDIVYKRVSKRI
Procedure: (§1) Lipid displacement assays were adapted from previous publications, [30]. Briefly, lipids were used to displace ANS bound to rL-FABP to assess how 4-HNE modification affects affinity towards more biologic ligands. Lipid stocks were diluted in absolute ethanol (10 mM, 5 mM, 1 mM, 0.1 mM) and prepared in a nitrogen gas chamber. Using conditions similar to ANS binding, increasing concentrations of FAs [stearate (SA), oleate (OA), and LA] were titrated into a pre-equilibrated solution containing 45 µM ANS, 1 µM r-LFABP, and 50 mM tricine (pH 8.0). The sample was mixed for an additional 30 seconds and the excitation and emission of ANS was measured as mentioned, where the loss of fluorescence indicates affinity towards the lipid.
(§2) For the displacement assays, one-site inhibition analysis of the data was utilized based on the fit of the data (instead of a two-site inhibition analysis) (eq2). Fluorescence counts that are inhibitable are denoted as bi, and residual counts are br. The concentration of OA, SA or LA is denoted as [FA]. The Hill constant, η, indicates the cooperativity between the binding sites, where if η >1 the sites are positively cooperative, η <1 the site are negatively cooperative, and if η = 1 the sites are non-cooperative. [drawing 2] (2)

rL-FABP = target: T2, rL-FABP (Mus musculus, UniProt P12710); test: Displacement of ANS by fatty acids, WT rL-FABP; type: binding
T2 construct: made in house; host or cells: Escherichia coli BL21 (DE3)
T2 sequence (P12710 1-127): T1 sequence (P12710 1-127)
Procedure: as §1, §2

FABP1 = details: 4 week ramped ethanol feeding regimen; cited from earlier work
L-FABP [1] = system: L-FABP
From the text: All protocols were approved by the Institutional Animal Care and Use Committee (IACUC) at the University of Colorado Anschutz Medical Campus. Male C57Bl/6J mice were fed a modified Lieber-DeCarli Diet (BioServ, Frenchtown, NJ) consisting of 45% fat-derived calories and 15% protein-derived calories with the remaining caloric content derived from either ethanol or maltose-dextrin. Mice were fed for a period of 6 weeks according to previous laboratory studies, [20]. At termination, the liver was harvested for whole tissue and histological evaluation as previously described, [21]. Subcellular fractions were isolated from whole liver tissue using sucrose gradient centrifugation.
200 ug of whole cell homogenates from both control and ethanol mice (n = 6/group) were incubated with 5 ug of mouse monoclonal ubiquitin antibody (Abcam, cat# ab411) for 2 hours at 4°C on a rotator to allow ubiquitin protein to bind to antibody. 100 ul of a 50% Protein G slurry (prepared and stored in 0.02% sodium azide and PBS, pH 7.4) was added to the reaction and incubated at 4°C rotating overnight. Samples were washed 5×5 minutes in PBST (PBS +[…]) and denatured in SDS-PAGE loading buffer at 95°C for 5 minutes. Immunoprecipitated protein was separated via SDS-PAGE and transferred to PVDF, and immunoblotted for L-FABP (Abcam, cat # 7847). Density of ubiquitinated bands were normalized to levels of L-FABP/β-Actin determined by immunoblotting.
Total RNA was isolated from […] of frozen tissue from control and ethanol-fed mice (n = 3) using RNeasy Mini Kits (Qiagen,Valencia, CA).

L-FABP [2] = details: following ethanol consumption in rats; cited from earlier work
apo rL-FABP = target: T3, apo rL-FABP (Mus musculus, UniProt P12710); test: Thermal denaturation of apo rL-FABP (UV-monitored); details: native apo rL-FABP, 0X 4-HNE
T3 construct: made in house; host or cells: Escherichia coli BL21 (DE3)
T3 sequence (P12710 1-127): T1 sequence (P12710 1-127)
Procedure: (§3) The stability of rL-FABP was assessed using UV-monitored heating experiments. Native (apo and holo) and 4-HNE modified (apo and holo) rL-FABP (0.8 mg/ml) was thermally denatured in 50 mM tricine buffer (pH 8.0) at 40–95°C over 1.5 hours in a 0.7 mL quartz cell (Starna Cells). Absorbance of rL-FABP was monitored at 260–360 nm using a Chirascan Plus Spectrometer (Applied Photophysics, Leatherhead, Surrey, UK) once per minute. Temperature was continuously ramped 1°C/min. Light scattering was recorded continuously at 360 nm to monitor protein aggregation. Temperature of aggregation (Tm) was determined using Global Analysis T-Ramp software provided by Applied Photophysics (Pro-Data Global3 v1.1.0) following baseline correction.

holo rL-FABP = target: T4, holo rL-FABP (Mus musculus, UniProt P12710); test: Thermal denaturation of holo rL-FABP (UV-monitored); details: native holo rL-FABP (linoleic acid bound), semi-quantitative
T4 construct: made in house; host or cells: Escherichia coli BL21 (DE3)
T4 sequence (P12710 1-127): T1 sequence (P12710 1-127)
Procedure: as §3

## CCCCCCCCCCCCCCCCCC(=O)O [Stearic Acid]
4-HNE adducted rL-FABP; 1X 4-HNE (53.95 µM) treated rL-FABP
  bi (counts inhibitable): 411,800±36,800 AFU
4-HNE adducted rL-FABP; 1X 4-HNE (53.95 µM) treated rL-FABP, read-out: ki (inhibition constant)
  Ki: 4410 ± 1660 nM
4-HNE adducted rL-FABP; 1X 4-HNE treated rL-FABP
  br (counts residual): 81,300±30,500 AFU
  n (hill coefficient): 2.74±0.37
4-HNE adducted rL-FABP; 1X 4-HNE treated versus WT rL-FABP
  reduction of maximal binding to the FA by 4-HNE: 41%
rL-FABP
  br (counts residual): 145,800±14,400 AFU
  n (hill coefficient): 2.75±0.264
rL-FABP; 45 µM ANS, 1 µM protein
  bi (counts inhibitable): 698,800±19,400 AFU
rL-FABP; 45 µM ANS, 1 µM protein, read-out: ki (inhibition constant)
  Ki: 1190 ± 130 nM

## CCO [ethanol]
FABP1
  decrease in the mRNA of FABP1: > 50%
L-FABP [1]; co-immunoprecipitation, ethanol diet 6 weeks, P<0.001, n = 6
  poly-ubiquitinated L-FABP normalized to total L-FABP: significant increase
L-FABP [1]; ethanol diet 6 weeks versus control
  decrease in FABP1 mRNA (RT-PCR): 1.6 fold
L-FABP [1]; ethanol livers, control 1.00±0.084, P<0.05, n = 3
  relative expression of FABP1: 0.617±0.069
L-FABP [1]; whole cell lysates, ethanol diet 6 weeks versus control, P<0.001, n = 6
  reduction in L-FABP protein (1D Western Blot): ~80%
L-FABP [2]
  decrease in expression of L-FABP: ~30%

B1: apo rL-FABP: purified, delipidated recombinant mouse liver fatty acid-binding protein (unbound) (protein, UniProt P12710 1-127, looked up)
Fatty acid-binding protein, …: T1 sequence (P12710 1-127)
modifications: delipidated
Apo rL-FABP
  Tm (temperature of aggregation): 71.82±0.09 °C

B2: holo rL-FABP: recombinant mouse L-FABP incubated with 1 mM linoleic acid (lipid-bound) (protein, UniProt P12710 1-127, looked up)
Fatty acid-binding protein, …: T1 sequence (P12710 1-127)
modifications: linoleic acid bound
Holo rL-FABP
  Tm (temperature of aggregation): 86.09±0.57 °C
